Test results from patent US9149618B2, “Built-in non-verbal instructional device integratable to applicators” (NANOMED SKINCARE, INC., priority 2010, dated 2015).
Where two headings read alike, the source gives them in different places.

Tests used:
[1] = In vitro permeation study, Franz-type diffusion cells, porcine ear skin; conditions: for Permeation rates of LC / Cumulative amount of LC: porcine ear skin, FMA; for Cumulative amount of LC: 8 h
[2] = In vitro permeation study, Franz-type diffusion cells, rat skin; format: in vitro ADME
Excerpt: Male Sprague-Dawley rats (220-250 g) were provided by Beijing Weitong Lihua Experimental Animals Ltd. Co. (Beijing China). Forty-eight hours before the test, rats were anesthetized by ether, and then the abdominal hair of each rat was shaved with an electric hair clipper. At the beginning of in vitro studies, animals were euthanized using carbon dioxide and full-thickness skins were removed. All research protocols adhered to the Guide for the Care and Use of Laboratory Animals (1996).
(§1) The method of the percutaneous absorption study adheres to the Test Guideline 428 of Organization for Economic Cooperation and Development (2004). The experiment was performed with a system employing Franz-type glass diffusion cells. The temperature in the receptor chamber was maintained at physiological temperature of 37.0±0.1° C. with an external, constant temperature circulating water bath.
(§2) Skin samples were treated using FMA delivery system. The insertion force was provided by the applicator. The skins without FMA treatment were used as control. The skin was mounted on a receptor chamber (2.5 ml) with the stratum corneum side facing upward into the donor chamber with effective permeation area of 0.66 cm^2. The receptor and donor chambers were filled with PBS solution, and the receptor fluid was continuously stirred with a magnetic bar at 280 rpm to maintain homogeneity. After 1 h equilibration, the solution in the receptor chamber was replaced with fresh PBS, and 300 μl of LC solution or 300 mg of LC gel was applied on the skin in the donor chamber, which was then covered with a parafilm to avoid any evaporation process. The samples of receptor cell were withdrawn through at predetermined time intervals and the receptor phase was immediately refreshed by equal volume of PBS buffer to keep a constant volume. The samples were analyzed by HPLC/UV. The results were expressed as the mean±S.D. (n=3-4 independent samples).
The quantitative determination of LC was performed by HPLC using methanol-190 mM KH2PO4 water (87:13) as mobile phase at a flow rate of 0.6 ml/min, by LC-2010A (Shimadzu, Japan). The injection volume was 20 μl. The analysis was performed in a YMC-Pack ODS-A C18 column with dimensions of 250 mm×4.6 mm i.d., 5 μm particle size (YMC Inc., USA). The column eluant was monitored at 225 nm. The detection limit is 20 μg ml^−1. The inter- and intra-day variability was less than 5%.
(§3) The cumulative amount of drug permeated per unit area versus time was plotted. The permeation rates of LC were calculated from the slope of linear portion of the plots. Data analysis was carried out with Microsoft Excel, Version 2000. Results were presented as the mean±S.D. (n=3-4 independent samples). Statistically significant differences were determined using the analysis of variance (ANOVA) with P<0.05 as a minimal level of significance.

[3] = In vitro permeation study, Franz-type diffusion cells, human cadaver skin; format: in vitro ADME
Protocol: Samples of full-thickness dermatomed human cadaver skins (≈800 μm) were obtained from the Burns Institute, 304th Clinical Department, The General Hospital of PLA, Trauma Center of Postgraduate Medical College and were free from overt pathology. The skin samples were kept frozen in liquid nitrogen and used within 3 months.
as §1
as §2, with “The samples of receptor cell were withdrawn through at predetermined time intervals and the receptor phase was immediately refreshed by equal volume of PBS buffer to keep a constant volume.” left out
The quantitative determination of LC was performed by HPLC using methanol-190 mM KH2PO4 water (87:13) as mobile phase at a flow rate of 0.6 ml/min, by LC-2010A (Shimadzu, Japan). […] The column eluant was monitored at 225 nm. […]
as §3, with “Data analysis was carried out with Microsoft Excel, Version 2000. Results were presented as the mean±S.D. (n=3-4 independent samples).” left out

[4] = Skin penetration of active agent on applicator pre-treated skin
[5] = In vivo permeation study: pharmacokinetics and absolute bioavailability of LC in rats; conditions: rat; for bioavailability / AUC(0-inf) / Cmax / Tmax: male, Sprague-Dawley, plasma; for AUC(0-inf): AUC0-∞; for Plasma concentration: intravenous 200 mg/rat
Excerpt: Male Sprague-Dawley rats (250 g±10 g) were equally divided into four groups (3 for each): group A, B, C and D. Before administration, all rats allowed to acclimatize for one week. One day before administration, rats were fasted overnight but allowed access to water. The hair of abdominal skin was carefully shaved by electric clippers for Group A and B. The rats in group A were pretreated by FMA with an area of 2 cm^2, the group B was untreated as a control. Then hydrogel patch containing LC 750 mg was applied to each rat by an adhesive housing for 6 h. Group C and Group D were control groups of oral and intravenous injection administration of 1 ml LC solution (200 mg/ml). A volume of 0.5 ml blood samples were taken before administration and at predetermined time intervals after LC administration. Plasma samples were immediately separated by centrifugation at 4000×g for 7 mins, and stored at −80° C. until assay.
Pretreatment method of samples: 120 μl of plasma was deproteinized with 600 μl of 0.6 M perchloric acid. The mixture was shaken for 30 s and allowed to stand in an ice bath for about 15 mins. After centrifuged at 4000×g for 7 mins, 500 μl of supernatant was transferred to a new tube in which 300 μl of 0.5 M K2CO3 was added, the mixture was shaken for 30 s and incubated in an ice-bath for 15 mins. Precipitate of KClO4 was removed by centrifugation at 4000×g for 7 mins, and 200 μl of the supernatant with free LC was separated for the assay.
Assays: The concentration of free LC in serum was determined by enzymatic assay kit with a limitation detection of 0.8 μg/ml.
Maximum plasma concentration (Cmax) and the time to reach this peak (Tmax) were directly identified from the pharmacokinetic curves (LC plasma concentration versus time). Area under the plasma concentration-time curve (AUC0→∞) was calculated by using the trapezoidal rule. Absolute bioavailability (A.B.) of LC after oral and FMA administration comparing with intravenous administration was calculated using the following equation:

[6] = With FMA, CP980 gel patch 750 mg/rat, 6 h application

## C[N+](C)(C)C[C@H](O)CC(=O)[O-] [LC, (3R)-3-hydroxy-4-trimethylazaniumylbutanoate]
[1]; porcine ear skin dermatomed ≈800 μm, FMA pretreatment, donor 640 mg/mL
  Permeation rates, FMA: 11.08 ± 2.05 mg/cm^2/h
[1]; porcine ear skin dermatomed ≈800 μm, without FMA, donor 640 mg/mL
  Permeation rates, Passive Diffusion: 0.37 ± 0.04 mg/cm^2/h
[1]; donor concentration 650 mg/ml
  Permeation rates of LC: 11.08±2.05 mg/cm^2/h
  Cumulative amount of LC: 93.23±17.76 mg/cm^2
[1]; donor concentration 800 mg/ml
  Permeation rates of LC: 11.80±1.50 mg/cm^2/h
  Cumulative amount of LC: 97.20±12.60 mg/cm^2
[2]; after FMA-puncture
  Permeation rate through rat skin relative to human skin: 3.7 times
[2]; passive diffusion
  Permeation rate through rat skin relative to human skin: about 13.8 times
[2]; rat skin
  ER (enhancement ratio, FMA permeation rates/passive permeation rates): 16
[2]; rat skin full thickness, FMA pretreatment, donor 640 mg/mL
  Permeation rates, FMA: 40.16 ± 3.97 mg/cm^2/h
[2]; rat skin full thickness, without FMA, donor 640 mg/mL
  Permeation rates, Passive Diffusion: 2.49 ± 0.40 mg/cm^2/h
[3]; human skin
  ER (enhancement ratio, FMA permeation rates/passive permeation rates): 59
[3]; human skin dermatomed ≈800 μm, FMA pretreatment, donor 640 mg/mL
  Permeation rates, FMA: 10.65 ± 2.12 mg/cm^2/h
[3]; human skin dermatomed ≈800 μm, without FMA, donor 640 mg/mL
  Permeation rates, Passive Diffusion: 0.18 ± 0.02 mg/cm^2/h
[4]
  Skin penetration speed on applicator pre-treated skin: 10 times faster
[6]
  Apparent dose of LC: 200 mg/rat
  The residual amount in patch: 550 mg/rat
Without FMA, CP980 gel patch 750 mg/rat, 6 h application
  The residual amount in patch: 764 mg/rat
rat, in vivo
  Difference between residual and initial content of patch: no significant difference
[5]; iv, 200 mg
  bioavailability: 100%
[5]; iv, 200 mg, Intravenous 200 mg/rat
  AUC(0-inf): 3680 µg·h/mL
[5]; po, 200 mg
  Cmax: 40 ± 11 µg/mL
  Tmax: 2 h
  bioavailability: 8%
[5]; po, 200 mg, Oral 200 mg/rat
  AUC(0-inf): 309 µg·h/mL
[5]; topical or ocular, 750 mg
  Cmax: 530 ± 86 µg/mL
  Tmax: 4 h
  bioavailability: 22%
[5]; topical or ocular, 750 mg, FMA delivery 750 mg/rat
  AUC(0-inf): 3020 µg·h/mL
[5]; FMA 750 mg/rat vs oral 200 mg/rat
  Cmax after FMA delivery relative to oral administration: about 13 fold
[5]; FMA delivery 750 mg/rat
  AUC0-∞: 3049 µg·h/mL
[5]; at 3 min
  Plasma concentration: 3900 ± 420 µg/mL
[5]; at 2 h
  Plasma concentration: 270 ± 50 µg/mL
